For series [1] the following is noted: 100 kPa, Liquid; for speed of sound: Frequency=3 MHz, Sing-around technique in a fixed-path interferometer; for mass density: Vibrating tube method.
The nature of series [2]: xn = mol fraction of the nth substance listed. Particulars: 100 kPa, Liquid, x2 = 0; for speed of sound: Frequency=3 MHz, Sing-around technique in a fixed-path interferometer; for mass density: Vibrating tube method.

± gives the expanded uncertainty stated by the source.

The term speed of sound denotes how fast a sound wave travels through the sample. One may read the mass density as the mass of a sample divided by its volume.

Take `O=Cc1ccco1` [2-furaldehyde]: the speed of sound in series [1] (283.15 K) is given as 1495.4 ± 1.6 m/s; in series [1] (293.15 K), 1458.8 ± 1.6 m/s; in series [1] (303.15 K), 1422.5 ± 1.6 m/s; in series [1] (313.15 K), 1386.5 ± 1.6 m/s. Moreover, the mass density was found to be 1169.93 ± 0.37 kg/m3 in series [1] (283.15 K), 1159.33 ± 0.36 kg/m3 in series [1] (293.15 K), 1148.69 ± 0.35 kg/m3 in series [1] (303.15 K) and 1138.01 ± 0.34 kg/m3 in series [1] (313.15 K).

As for `CCCCO` [butan-1-ol], the speed of sound in series [1] (283.15 K) is 1291.4 ± 1.6 m/s; in series [1] (293.15 K), 1257.5 ± 1.6 m/s; in series [1] (303.15 K), 1223.6 ± 1.6 m/s; in series [1] (313.15 K), 1190.2 ± 1.6 m/s. The mass density came out at 817.21 ± 0.24 kg/m3 in series [1] (283.15 K), 809.65 ± 0.24 kg/m3 in series [1] (293.15 K), 802 ± 0.24 kg/m3 in series [1] (303.15 K) and 794.21 ± 0.24 kg/m3 in series [1] (313.15 K).

On to `CCCCO` [butan-1-ol] + O=Cc1ccco1, for which the speed of sound in series [2] (283.15 K) worked out at 1291.4 ± 1.6 m/s; in series [2] (293.15 K) it was 1257.5 ± 1.6 m/s; in series [2] (303.15 K), 1223.6 ± 1.6 m/s; in series [2] (313.15 K) it was 1190.2 ± 1.6 m/s. Further, the mass density in series [2] (283.15 K) turned out to be 817.21 ± 0.24 kg/m3; in series [2] (293.15 K), 809.65 ± 0.24 kg/m3; in series [2] (303.15 K), 802 ± 0.24 kg/m3; in series [2] (313.15 K), 794.21 ± 0.24 kg/m3.

Regarding `CCC(C)O` (stereo unspecified) [butan-2-ol], the speed of sound in series [1] (283.15 K) was 1268.4 ± 1.6 m/s; in series [1] (293.15 K) it was 1232.4 ± 1.6 m/s; in series [1] (303.15 K) it was 1196.1 ± 1.6 m/s; in series [1] (313.15 K), 1159.5 ± 1.6 m/s. In addition, the mass density was determined as 815.39 ± 0.24 kg/m3 in series [1] (283.15 K), 807.34 ± 0.24 kg/m3 in series [1] (293.15 K), 798.99 ± 0.24 kg/m3 in series [1] (303.15 K) and 790.28 ± 0.24 kg/m3 in series [1] (313.15 K).

As for `CCC(C)O` (stereo unspecified) [butan-2-ol] + O=Cc1ccco1, the speed of sound in series [2] (283.15 K) is given as 1268.4 ± 1.6 m/s; in series [2] (293.15 K), 1232.4 ± 1.6 m/s; in series [2] (303.15 K) it was 1196.1 ± 1.6 m/s; in series [2] (313.15 K) it was 1159.5 ± 1.6 m/s. Besides, the mass density is 815.39 ± 0.24 kg/m3 in series [2] (283.15 K), 807.34 ± 0.24 kg/m3 in series [2] (293.15 K), 798.99 ± 0.24 kg/m3 in series [2] (303.15 K) and 790.28 ± 0.24 kg/m3 in series [2] (313.15 K).

As to `CCO` [ethanol], the speed of sound is reported as 1197.3 ± 1.6 m/s in series [1] (283.15 K), 1162.5 ± 1.6 m/s in series [1] (293.15 K), 1128.3 ± 1.6 m/s in series [1] (303.15 K) and 1094.6 ± 1.6 m/s in series [1] (313.15 K). In addition, the mass density was 798.51 ± 0.24 kg/m3 in series [1] (283.15 K), 789.99 ± 0.24 kg/m3 in series [1] (293.15 K), 781.38 ± 0.24 kg/m3 in series [1] (303.15 K) and 772.64 ± 0.24 kg/m3 in series [1] (313.15 K).

In the case of `CCO` [ethanol] + O=Cc1ccco1, the speed of sound in series [2] (283.15 K) was found to be 1197.3 ± 1.6 m/s; in series [2] (293.15 K) it was 1162.5 ± 1.6 m/s; in series [2] (303.15 K), 1128.3 ± 1.6 m/s; in series [2] (313.15 K), 1094.6 ± 1.6 m/s. Also, the mass density was 798.51 ± 0.24 kg/m3 in series [2] (283.15 K), 789.99 ± 0.24 kg/m3 in series [2] (293.15 K), 781.38 ± 0.24 kg/m3 in series [2] (303.15 K) and 772.64 ± 0.24 kg/m3 in series [2] (313.15 K).

(Values after the NIST ThermoML archive (doi:10.1016/j.tca.2014.11.009).)
